Experimental data taken from patent publication US20080182904A1, “Baclofen for Relapse Protection in Addiction” (priority 2007, published 2008).

Tests used:
[1] = Alcohol-challenge test for relapse in a patient treated with baclofen for alcohol dependence; format: in vivo, human
Protocol: For alcoholism, vulnerability is tested with an alcohol-challenge test of about three to five standard drinks. The number of drinks can and should be varied (typically lower) if any adverse signs or cravings appear in the patient. […] If craving occurs, the patient is not protected against relapse and the SSD dosage needs to be increased and the test performed again until craving stops occurring altogether upon renewed alcohol-challenge (s). Once that state is achieved, the patient is protected against relapse.
The susceptibility of a patient to relapse while being treated for alcohol dependence using baclofen was determined. The patient (themself a physician) had been symptom-free for more than one year and was on a baclofen dose of 120 mg/day (40 mg, three times per day).
First challenge: During a social gathering, the patient had 3 standard drinks of alcohol (gin and tonic) over a few hours and evaluated the effects in the presence of a physician witness. The first drink was consumed slowly by sipping over some 40 minutes, without the slightest urge to drink it rapidly (and which had previously been the only way the patient would drink, e.g., typically consuming the drink within 5 minutes). A second drink was ordered, consumed and started to produce a pleasant mild euphoria. A third drink was begun but the patient was not able to finish it, something that would have been impossible during untreated alcohol dependence. At the time, the patient felt no desire to finish the third drink, felt a bit high and maintained the ability to chat. After a night's sleep, the patient woke up without any feelings of remorse or fear. […] The following hours were unremarkable. No alcohol thoughts or dreams occurred in the following weeks.
Second challenge: The patient repeated the experiment approximately one month later with an even stronger challenge: five drinks. Again in the presence of another physician, the patient succeeded in having 5 drinks of vodka and tonic over 6 hours. […] Accordingly the daily dosage of baclofen was increased from 40 mg three times daily, to 60 mg three times daily (180 mg/day). […] Accordingly, symptom suppression is dose-dependent and may require higher dosage when challenge is important.
Third challenge: To test if a higher than routine dose of baclofen can prevent cravings, even in the presence of a massive amount of alcohol such as is ingested during heavy drinking or during active relapse, the patient's baclofen dose was […] 24 hours prior to consuming an alcoholic beverage. The patient took 30 mg baclofen in the morning, a second such dose 8 hours later and a few hours later (in the evening) took dose of 80 mg baclofen at the same time as beginning to drink large amounts of alcohol as could reasonably tolerated, expecting that to be about a fifth of Scotch. The alcohol was consumed over several hours and the next day, actual consumption was measured to be four fifths of the bottle. […] The patient is able to have an occasional drink in a non-dependent fashion.

[2] = cited from earlier work
[3] = cited from earlier work; remark: listed apart in the source

## NCC(CC(=O)O)c1ccc(Cl)cc1 (centres unmarked) [baclofen]
[1]; 30 mg + 30 mg + 80 mg on the day, four fifths of a bottle of Scotch over several hours, next day
  craving after third challenge: no craving and no desire whatsoever to drink liquor
[1]; 120 mg/day (40 mg three times per day), symptom-free for more than one year
  craving and symptoms before challenge: completely suppressed craving and symptoms
[1]; 180 mg/day for six days, then maintenance dose of 120 mg/day
  craving during follow-up after third challenge: has not experienced any craving for more than one year
[1]; 3 standard drinks (gin and tonic) over a few hours, 120 mg/day, after a night's sleep
  craving after first challenge: no desire or thought to drink whatsoever
[1]; 5 drinks of vodka and tonic over 6 hours, 120 mg/day, next day in the afternoon
  craving after second challenge: a bout of craving was experienced
[1]; second challenge, 60 mg three times daily (180 mg/day)
  craving on the increased regimen: craving was again completely suppressed
[1]; second challenge, administration of 40 mg, craving reappeared several hours later
  effect of an additional dose on the bout of craving: suppressed the craving within the hour
[1]; second challenge, after six days at 180 mg/day progressively reduced to 120 mg/day
  craving after dose reduction: cravings did not reoccur
[2]; seven individual patients (Geneva) and one hundred patients (Vienna)
  complete and prolonged suppression of symptoms and consequences of AD: successfully reproduced
[2]; some patients treated in Switzerland, even at high-dose baclofen
  relapse: did relapse
[3]; after progressive reduction from SSD, over the complete nine months of the published study
  dosage sufficient for craving not to reappear: 120 mg/day
[3]; at SSD
  coexistent (comorbid preexisting) anxiety: greatly attenuated
[3]; at SSD, reduced by lowering the dosage to 120 mg/day
  side effect: somnolence
[3]; oral, gradual dose-escalation, one patient
  dose needed for craving to completely and permanently disappear (symptom-suppressing dose, SSD): 270 mg/day
